The values that follow come from patent publication US12171756B2, “NLRP3 modulators” (Innate Tumor Immunity, Inc., priority 2017, dated 2024).

For orientation: IC50 means the concentration at which inhibition is half-maximal. As a reminder, the EC50 is the concentration that produces a half-maximal response.

The test system of experiment [1] is IL-1β production in PMA-differentiated THP-1 cells. Briefly: Measurement of IL-1β production in PMA-differentiated THP-1 cells (ELISA, 4 hours). Format: cell-based, human. To be noted: Homo sapiens, THP-1, human IL-1β production, assayed using one or more of the described procedures, read-out: NLRP3 hIL1B IC50. The method, boiled down: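 THP-1 cells differentiated with PMA (10 μg/ml, 24 h), replated at 1×10^6 cells/ml in RPMI with 2% FBS and exposed to compounds (e.g. 0.1–100 μM, 1% DMSO final) for 4 hours. IL-1β in cell-free supernatant quantified by ELISA against vehicle control.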

In experiment [2] the target is T1, human TLR7 (Homo sapiens, UniProt Q9NYK1).
T1 construct: host or cells: human HEK-Blue cells (HEK293-derived) co-expressing TLR7 and an NF-kB/AP1-inducible SEAP reporter
T1 sequence (Q9NYK1 27-1049): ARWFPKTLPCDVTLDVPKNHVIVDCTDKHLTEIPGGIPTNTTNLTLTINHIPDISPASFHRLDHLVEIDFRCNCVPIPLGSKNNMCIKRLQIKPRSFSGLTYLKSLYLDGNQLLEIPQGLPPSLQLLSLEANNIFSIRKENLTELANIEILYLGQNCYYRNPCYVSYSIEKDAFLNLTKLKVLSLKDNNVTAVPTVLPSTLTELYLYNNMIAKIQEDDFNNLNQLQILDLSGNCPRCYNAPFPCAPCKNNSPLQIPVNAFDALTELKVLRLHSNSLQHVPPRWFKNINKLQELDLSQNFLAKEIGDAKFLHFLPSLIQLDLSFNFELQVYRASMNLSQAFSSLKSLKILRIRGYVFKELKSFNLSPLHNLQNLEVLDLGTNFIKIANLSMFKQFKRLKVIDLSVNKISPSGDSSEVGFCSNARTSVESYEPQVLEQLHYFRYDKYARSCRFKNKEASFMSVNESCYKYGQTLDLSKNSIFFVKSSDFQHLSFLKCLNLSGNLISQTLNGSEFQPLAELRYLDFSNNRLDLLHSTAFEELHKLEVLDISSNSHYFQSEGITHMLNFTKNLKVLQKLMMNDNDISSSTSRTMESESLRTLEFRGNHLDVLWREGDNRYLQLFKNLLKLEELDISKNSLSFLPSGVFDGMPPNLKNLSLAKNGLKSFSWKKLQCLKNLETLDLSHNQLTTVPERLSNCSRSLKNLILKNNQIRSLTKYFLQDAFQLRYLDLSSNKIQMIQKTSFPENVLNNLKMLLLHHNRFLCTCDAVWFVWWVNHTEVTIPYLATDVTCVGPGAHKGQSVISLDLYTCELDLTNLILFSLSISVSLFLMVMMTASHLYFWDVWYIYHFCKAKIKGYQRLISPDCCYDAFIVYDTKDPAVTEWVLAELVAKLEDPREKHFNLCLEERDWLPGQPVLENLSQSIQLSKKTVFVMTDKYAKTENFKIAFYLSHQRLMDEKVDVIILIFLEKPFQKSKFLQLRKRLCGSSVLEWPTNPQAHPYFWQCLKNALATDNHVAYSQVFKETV
Briefly: In vitro human TLR7 binding reporter assay (HEK-Blue, NF-kB/AP1-inducible SEAP). To be noted: HEK-Blue human TLR7 SEAP reporter cells; activity range classes; read-out: TLR7 Agonist EC50. It counts as cell-based. The method, boiled down:
(§1)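 EC50s come from NF-kB/AP1-driven SEAP secretion in HEK-Blue cells expressing TLR7 or TLR8, measured with Quanti-Blue after an 18 h compound incubation. Maximal response is defined by a 50 μM reference standard.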

The target in experiment [3] is T2, human TLR8 (Homo sapiens, UniProt Q9NR97).
T2 construct: host or cells: human HEK-Blue cells (HEK293-derived) co-expressing TLR8 and an NF-kB/AP1-inducible SEAP reporter
T2 sequence (Q9NR97 27-1041): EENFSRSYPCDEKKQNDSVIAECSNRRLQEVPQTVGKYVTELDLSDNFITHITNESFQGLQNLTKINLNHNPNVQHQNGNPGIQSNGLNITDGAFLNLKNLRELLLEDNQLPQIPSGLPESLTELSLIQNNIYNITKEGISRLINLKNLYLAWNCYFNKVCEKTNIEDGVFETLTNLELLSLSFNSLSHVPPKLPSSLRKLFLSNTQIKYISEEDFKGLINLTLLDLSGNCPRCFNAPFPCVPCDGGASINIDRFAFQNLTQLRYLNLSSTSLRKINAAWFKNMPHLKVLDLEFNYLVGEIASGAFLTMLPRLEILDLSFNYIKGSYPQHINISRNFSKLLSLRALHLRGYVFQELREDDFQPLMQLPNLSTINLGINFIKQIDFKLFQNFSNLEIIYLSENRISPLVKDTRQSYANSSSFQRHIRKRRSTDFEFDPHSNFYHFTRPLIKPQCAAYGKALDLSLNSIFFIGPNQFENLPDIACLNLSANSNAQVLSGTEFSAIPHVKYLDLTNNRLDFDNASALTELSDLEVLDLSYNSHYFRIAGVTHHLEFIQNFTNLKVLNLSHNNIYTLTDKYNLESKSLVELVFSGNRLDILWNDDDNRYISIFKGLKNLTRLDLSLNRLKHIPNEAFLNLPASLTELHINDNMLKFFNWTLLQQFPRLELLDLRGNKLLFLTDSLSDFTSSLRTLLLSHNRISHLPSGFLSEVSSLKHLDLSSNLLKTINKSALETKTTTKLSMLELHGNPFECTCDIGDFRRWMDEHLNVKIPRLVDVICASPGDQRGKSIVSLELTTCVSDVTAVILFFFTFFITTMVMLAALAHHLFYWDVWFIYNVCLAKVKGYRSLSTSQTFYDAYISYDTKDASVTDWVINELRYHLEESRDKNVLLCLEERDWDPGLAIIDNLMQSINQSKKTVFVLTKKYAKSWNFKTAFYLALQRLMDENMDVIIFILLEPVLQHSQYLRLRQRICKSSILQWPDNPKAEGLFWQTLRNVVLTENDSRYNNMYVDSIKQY
As to the kind of experiment: In vitro human TLR8 binding reporter assay (HEK-Blue, NF-kB/AP1-inducible SEAP). Format: cell-based. Particulars: HEK-Blue human TLR8 SEAP reporter cells; activity range classes; read-out: TLR8 Agonist EC50. In a few lines: as §1
A general note: A reporter such as luciferase makes a cellular process visible.

In the case of `Nc1cc(OCCCCN2CCS(=O)(=O)CC2)c2ccc(-c3ccn[nH]3)cc2n1` [Compound 180], the IC50 in experiment [1] was 9.72 µM. Besides, the EC50 in experiment [2] and in experiment [3] was more than 100 µM in each case.
Regarding `Nc1cc(N[C@H]2CCC[C@H]2O)c2ccc(-c3ccn[nH]3)cc2n1` [Compound 235], the IC50 in experiment [1] stood at 0.86 µM. Besides, the EC50 in experiment [2] and in experiment [3] was more than 100 µM throughout.
For the compound `Nc1cc(OCCc2ccsc2)c2ccc(-c3cccs3)cc2n1` [Compound 330], the IC50 in experiment [1] was found to be 24.6 µM. The EC50 in experiment [2] and in experiment [3] was more than 100 µM in each case.
For `COc1cc2c(NCCCO)cc(N)nc2cc1-c1ccn[nH]1` [Compound 320], in experiment [1], the IC50 was 27.7 µM. In addition, the EC50 in experiment [2] and in experiment [3] was more than 100 µM throughout.
In the case of `Nc1cc(NCc2cncnc2)c2ccc(-c3ccn[nH]3)cc2n1` [Compound 317], the IC50 in experiment [1] stood at 0.69 µM. Besides, the EC50 in experiment [2] and in experiment [3] was more than 100 µM each time.
`Nc1nc2cc(-c3ccn[nH]3)ccc2cc1-c1ccc2[nH]ncc2c1` [Compound 127]: the IC50 in experiment [1] is 1.15 µM. Moreover, the EC50 in experiment [2] and in experiment [3] was more than 100 µM in each case.
As to `Nc1cc(OCCc2ccsc2)c2ccc(-c3cc[nH]n3)cc2n1` [Compound 329, 7-(1H-pyrazol-3-yl)-4-(2-(thiophen-3-yl)ethoxy)quinolin-2-amine], in experiment [1], the IC50 turned out to be 0.67 µM. In addition, the EC50 in experiment [2] and in experiment [3] was more than 100 µM in each case.
Regarding `CC(=O)NCCCCc1cc2ccc(-c3cc[nH]n3)cc2nc1N` [Compound 109], the 50% inhibitory concentration (IC50) in experiment [1] amounted to 4.33 µM. The EC50 in experiment [2] and in experiment [3] was more than 100 µM throughout.
In the case of `Nc1cc(NCCCO)c2ccc(-n3cccn3)cc2n1` [Compound 173, 3-((2-amino-7-(1H-pyrazol-1-yl)quinolin-4-yl)amino)propan-1-ol], the IC50 in experiment [1] was found to be 0.28 µM. Moreover, the EC50 in experiment [2] and in experiment [3] was more than 100 µM each time.
Take `N#CCCCNc1cc(N)nc2cc(-c3ccn[nH]3)ccc12` [Compound 222]: the IC50 in experiment [1] was determined as 0.06 µM. The EC50 in experiment [2] and in experiment [3] was more than 100 µM throughout.
`Nc1cc(O[C@H]2CC[C@H](O)CC2)c2ccc(-c3ccn[nH]3)cc2n1` [Compound 191]: the IC50 in experiment [1] worked out at 0.63 µM. Also, the EC50 in experiment [2] and in experiment [3] was more than 100 µM in each case.
Turning to `Nc1cc(N[C@@H]2CC[C@H](O)C2)c2ccc(-c3ccn[nH]3)cc2n1` [Compound 247], the IC50 in experiment [1] was 0.48 µM. The EC50 in experiment [2] and in experiment [3] was more than 100 µM in each case.
Consider `Nc1cc(NCc2cccnc2)c2ccc(-c3ccn[nH]3)cc2n1` [Compound 150], for which the IC50 in experiment [1] is 0.22 µM. The EC50 in experiment [2] and in experiment [3] was more than 100 µM throughout.
Turning to `Nc1cc(NCc2cccc(F)c2)c2ccc(-c3ccn[nH]3)cc2n1` [Compound 260], the IC50 in experiment [1] is 0.32 µM. Moreover, the concentration giving a half-maximal response (EC50) in experiment [2] and in experiment [3] was more than 100 µM in each case.
Turning to `CCO[C@H]1COC[C@@H]1Nc1cc(N)nc2cc(-c3ccn[nH]3)ccc12` [Compound 291], the IC50 in experiment [1] was 1.67 µM. The EC50 in experiment [2] and in experiment [3] was more than 100 µM in each case.
`Nc1cc(NCc2ccncc2)c2ccc(-c3ccn[nH]3)cc2n1` [Compound 148]: the concentration for half-maximal inhibition (IC50) in experiment [1] worked out at 1.64 µM. The EC50 in experiment [2] and in experiment [3] was more than 100 µM in each case.
In the case of `Nc1cc(OCCn2cccn2)c2ccc(-c3ccn[nH]3)cc2n1` [Compound 201], in experiment [1], the IC50 worked out at 5.05 µM. Besides, the EC50 in experiment [2] and in experiment [3] was more than 100 µM throughout.
Take `Nc1cc(N[C@@H]2CCCOC2)c2ccc(-c3ccn[nH]3)cc2n1` [Compound 289]: in experiment [1], the IC50 stood at 0.85 µM. The EC50 in experiment [2] and in experiment [3] was more than 100 µM in each case.
As for `Nc1cc(NCc2ccccn2)c2ccc(-c3ccn[nH]3)cc2n1` [Compound 135], the IC50 in experiment [1] was 0.12 µM. The EC50 in experiment [2] and in experiment [3] was more than 100 µM each time.
Take `Nc1cc(NCCc2ncn[nH]2)c2ccc(-c3ccn[nH]3)cc2n1` [Compound 224]: the IC50 in experiment [1] stood at 0.22 µM. The EC50 in experiment [2] and in experiment [3] was more than 100 µM each time.
Consider `Nc1cc(NCC2(O)CC2)c2ccc(-c3ccn[nH]3)cc2n1` [Compound 147], for which the IC50 in experiment [1] worked out at 0.99 µM. Besides, the EC50 in experiment [2] and in experiment [3] was more than 100 µM each time.
As for `Nc1cc(OC[C@H](O)CO)c2ccc(-c3ccn[nH]3)cc2n1` [Compound 221], the IC50 in experiment [1] worked out at 0.52 µM. The EC50 in experiment [2] and in experiment [3] was more than 100 µM throughout.
Consider `Nc1cc(NCc2cc[nH]n2)c2ccc(-c3ccn[nH]3)cc2n1` [Compound 128, N4-((1H-pyrazol-3-yl)methyl)-7-(1H-pyrazol-5-yl)quinoline-2,4-diamine], for which the half-maximal inhibitory concentration (IC50) in experiment [1] turned out to be 0.1 µM. The concentration giving a half-maximal response (EC50) in experiment [2] and in experiment [3] was more than 100 µM in each case.
Turning to `Nc1cc(CCCO)c2ccc(-c3ccsn3)cc2n1` [Compound 219, 3-(2-amino-7-(isothiazol-3-yl)quinolin-4-yl)propan-1-ol], the IC50 in experiment [1] amounted to 2.75 µM. Moreover, the EC50 in experiment [2] and in experiment [3] was more than 100 µM in each case.
On to `Nc1nc2cc(-c3ccn[nH]3)ccc2cc1CN1CCCC1=O` [Compound 119], for which, in experiment [1], the IC50 amounted to 3.07 µM. Besides, the figures for the EC50 in experiment [2] and in experiment [3] were more than 100 µM and 20 to 100 µM, respectively.
On the same counts, the results for `Nc1ccc2ccc(-c3ccn[nH]3)cc2n1` [Compound 314, 7-(1H-pyrazol-5-yl)quinolin-2-amine] are 1.8 µM, more than 100 µM and more than 100 µM.
Turning to `CN(C)C1CCN(Cc2cc3ccc(-c4ccn[nH]4)cc3nc2N)CC1` [Compound 118], in experiment [1], the IC50 came out at 1.73 µM. Moreover, the EC50 in experiment [2] and in experiment [3] was more than 100 µM in each case.
Regarding `Nc1cc(N2CCC(O)CC2)c2ccc(-c3ccn[nH]3)cc2n1` [Compound 145], the half-maximal inhibitory concentration (IC50) in experiment [1] is 2.55 µM. The 50% effective concentration (EC50) in experiment [2] and in experiment [3] was more than 100 µM each time.
Consider `CNC(=O)CCNc1cc(N)nc2cc(-c3ccn[nH]3)ccc12` [Compound 139], for which the IC50 in experiment [1] was determined as 2.01 µM. For the same compound, the EC50 in experiment [2] and in experiment [3] was more than 100 µM in each case.
